From patent publication US20040229241A1, “Cloned mammalian polyamine oxidase” (priority 2001, published 2004)

Columns and labels:
[1] = biological target: T1, purified recombinant human PAOh1/SMO (Homo sapiens, UniProt Q9NWM0); experiment: Oxidase activity of purified recombinant PAOh1/SMO, luminol chemiluminescence; assay type: biochemical; details: 250 μM of compound
T1 construct: A 1702 bp fragment of the PAOh1cDNA was produced by PCR; His tag (pET15b) (N); made in house; host or cells: Escherichia coli BL21(DE3)
Description: Expression and Purification of PAOh1/SMO. The pET15b/PAOh1/SMO plasmid was used to transform the BL21(DE3) strain of Escherichia coli (Novagen) and transformed cells were selected on LB agar with 50 μg/ml ampicillin. The expression of PAOh1/SMO protein was induced in LB medium by the addition of 1 mM IPTG for 3 h at 37 ° C. Cell lysates were prepared under denaturing conditions with 8M urea and PAOh1/SMO protein was purified from the lysate by Ni-NTA resin according to the manufacturer's protocol (Qiagen, Valencia, Calif.). The resulting denatured protein was renatured in buffers containing decreasing concentrations of urea (5M urea, 4 h; 2.5M urea, 4 h; 1M urea, 12 h; and 0M urea, 12 h) and 50 mM Tris-HCl, pH 7.5, 250 mM NaCl, 0.1 mM EDTA, 1 mM DTT, and 0.2 μM flavin adenine dinucleotide (FAD).
Determination of PAO enzyme activity. PAO activity of the purified PAOh1/SMO was assayed using a modi.cation of the chemiluminesence analysis reported by Fernandez et al. and Rogers, et al.. Briefly, luminol-dependent chemiluminescence was determined using a Monolight 3010 luminometer with two reagent injectors. Luminol was prepared as a 100 mM stock solution in DMSO and diluted to 100 μM with H2O, immediately prior to use. Purified PAOh1/SMO was assayed in a 100 mM glycine buffer, pH 8.0, 5 ηmol luminol, 20 μg horseradish peroxidase, and the polyamine substrate as indicated. All reagents with the exception of the polyamine substrate were combined and incubated for 2 min at 37 ° C., then the tube was transferred to the luminometer, substrate was added, and the resulting chemiluminescence was integrated over 20 s. The integral values are calibrated against standards containing known concentrations of H2O2 and the activities are expressed as pmols H2O2/mg protein/min. Where indicated, inhibitors were added at the specified concentrations prior to the addition of substrate. Km and Vmax values for the purified enzyme with the indicated substrate were estimated using Lineweaver-Burk transformation of the Michaelis-Menten kinetic equation.

[2] = test system: NCI A549 cells; experiment: MTS cell growth analysis of NCI A549 cells with or without MDL 72,527; assay type: cell-based, human; details: NCI A549, 96 h, 10 μM analogue with 250 μM MDL 72,527
Description: (§1) Cell Culture and Analysis of Growth Inhibition of Human Lung Cancer Cell Lines The non-small-cell cancer lines NCI A549 (adenocarcinoma), NCI H157 (squamous), NCI H727 (carcinoid), NCI H125 (adenocarcinoma) and U1752 (squamous), and the small-cell lung carcinoma lines NCI H82 and NCI H889 were cultured as we have previously described. Cells were treated for the times and with the concentrations of specific agents as indicated in the Results. For cell growth analysis in the presence of the PAOh1/SMO inhibitor MDL 72,527, the MTS dye reduction assay CellTiter 96 system from Promega was used according to the supplier's protocol. In these experiments, NCI A549 cells were seeded at 5×10^3 cells/well in a 96-well microtiter plate and treated for 96 h with 10 μM of the indicated analogue in the presence or absence of 250 μM MDL 72,527.

[3] = test system: PAO message; experiment: Northern blot of PAO mRNA in NCI H157 cells after analogue treatment; assay type: cell-based, human; details: 10 μM, 24 h
Description: RNA Purification and Northern Blot Assay. Total cellular RNA from the NCI H157 cell line was extracted using Trizol total RNA reagent according to the protocol from the manufacturer. Total RNA (20 μg) was separated on a denaturing 1.5% agarose gel containing 6% formaldehyde, transferred to Zetaprobe membrane (Bio-Rad), and hybridized with a random primer-labeled pPAOh1 cDNA as the probe. Blots were washed and reprobed with an 18S ribosomal cDNA probe as a loading control.

[4] = test system: PAO; experiment: PAO activity in homogenates of NCI H157 cells after analogue treatment; assay type: cell-based, human; details: 10 μM, 24 h
Description: Determination of PAO Enzyme Activity. The cultured H157 cells with or without treatment of 10 μM N^1, N″-bis(ethyl)norspermine (BENSpm) were homogenized with a Dounce tissue homogenizer in ice-cold 0.083 M sodium borate buffer (pH 9.0). The PAO activity in homogenates was assayed by the method of Suzuki et al. […] The enzyme activity was stopped by the addition of 2.0 ml of 0.1 M NaOH solution. The fluorescence intensity was measured with excitation at 323 nm and emission at 426 nm. […] Protein content of the cellular homogenate was determined using the Bio-Rad protein assay kit (Bio-Rad). […] For determination of PAO activity in the product of the unlabeled TnT reaction, 10 μl of TnT reaction were used in the place of the homogenate. The PAO activity in the TnT reactions was represented by the fluorescent compound formed within the 1-h incubation. […] The concentrations chosen for each inhibitor were based on studies published previously (12).

[5] = test system: SSAT; experiment: SSAT activity of NCI A549 cellular extracts; assay type: cell-based, human; details: NCI A549, 10 μM, 24 h; untreated 5 ± 0.1
From the text: (§2) Total cellular RNA was extracted from the lung cancer cell lines using Trizol reagent (Invitrogen) according to the manufacturer's protocol. For Northern blotting, total RNA (20 lg) was separated on a denaturing 1.5% agarose gel containing 6% formaldehyde and transferred to Zetaprobe membrane (Bio-Rad). Random primer- labeled PAOh1 cDNA was used as probe to estimate PAOh1/SMO expression. Blots were stripped and reprobed with an 18S ribosomal cDNA to provide a loading control. Analysis of polyamine content, SSAT and PAOh1/SMO activity. Intracellular polyamine concentrations were determined using the precolumn dansylation labeling, reverse-phase high-pressure liquid chromatography method as described by Kabra et al. using 1,7-diaminoheptane as an internal standard. Polyamine concentrations are reported as nanomoles per milligram protein for each sample, where lysate protein content was measured by the method of Bradford. SSAT activity of cellular extracts was measured as previously described. […] The PAOh1/SMO assays were performed in the presence of 1.0 mM pargyline and 0.1 mM semicarbizide as inhibitors of monoamine oxidase (MAO) and diamine oxidase (DAO), respectively.

[6] = test system: NCI A549 cells; experiment: Intracellular polyamine and analogue content of NCI A549 cells (HPLC); assay type: cell-based, human; details: NCI A549, 10 μM, 24 h
From the text: as §2

[7] = test system: PAOh1/SMO; experiment: PAOh1/SMO activity in lysates of NCI A549 cells after analogue treatment; assay type: cell-based, human
Description: as §1, §2

[8] = test system: PAOh1/SMO; experiment: PAOh1/SMO activity and mRNA in small-cell lung cancer lines NCI H82 and NCI H889 after BENSpm; assay type: cell-based, human; details: two small-cell lung cancer lines, 10 μM, 24 h
Description: as §1, with “In these experiments, NCI A549 cells were seeded at 5×10^3 cells/well in a 96-well microtiter plate and treated for 96 h with 10 μM of the indicated analogue in the presence or absence of 250 μM MDL 72,527.” left out
Total cellular RNA was extracted from the lung cancer cell lines using Trizol reagent (Invitrogen) according to the manufacturer's protocol. […] Intracellular polyamine concentrations were determined using the precolumn dansylation labeling, reverse-phase high-pressure liquid chromatography method as described by Kabra et al. using 1,7-diaminoheptane as an internal standard. Polyamine concentrations are reported as nanomoles per milligram protein for each sample, where lysate protein content was measured by the method of Bradford. SSAT activity of cellular extracts was measured as previously described. […]

T1 sequence (Q9NWM0 whole entry, the tested form may be a part): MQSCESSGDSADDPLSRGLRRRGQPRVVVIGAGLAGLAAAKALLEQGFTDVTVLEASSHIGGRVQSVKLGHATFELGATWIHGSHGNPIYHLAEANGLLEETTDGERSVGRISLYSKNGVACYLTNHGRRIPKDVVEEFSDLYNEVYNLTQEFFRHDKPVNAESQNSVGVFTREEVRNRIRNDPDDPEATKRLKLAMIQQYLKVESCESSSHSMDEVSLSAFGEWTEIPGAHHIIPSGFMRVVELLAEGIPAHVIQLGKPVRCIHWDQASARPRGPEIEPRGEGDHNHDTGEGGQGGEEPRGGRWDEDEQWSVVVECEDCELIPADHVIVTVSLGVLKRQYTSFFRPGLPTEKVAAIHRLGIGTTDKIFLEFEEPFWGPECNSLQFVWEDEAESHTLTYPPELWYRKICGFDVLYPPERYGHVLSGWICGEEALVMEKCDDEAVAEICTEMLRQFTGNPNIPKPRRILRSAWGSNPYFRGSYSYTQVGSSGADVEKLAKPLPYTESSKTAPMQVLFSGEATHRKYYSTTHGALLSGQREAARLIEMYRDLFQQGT

fold induction of PAOh1/SMO activity ([7]; NCI A549, 10 μM, 24 h, 250 μM spermine as substrate): about fivefold
SMILES: CCNCCCNCCCNCCCNCC [BENSpm, N^1,N^11-bis(ethyl)norspermine]
ability to serve as substrate (oxidation by purified PAOh1/SMO) [1]: none of the analogues examined were found to be oxidized
sensitivity of cell growth to analogue in the presence of the PAOh1/SMO inhibitor [2]: clear decrease in sensitivity
increase in PAO message [3]: ~5 fold
increase in PAO activity [4]: > 3 fold
SSAT activity [5]: 5590 ± 517.7 pmol N^1-acetylspermidine/mg p
Polyamine: Putrescine ([6]; untreated 2.1 ± 0.7): <0.05 nmol/mg protein
Polyamine: Spermine ([6]; untreated 9.9 ± 1.2): 1.2 ± 0.3 nmol/mg protein
Polyamine: Spermidine ([6]; untreated 26.9 ± 1.2): 1.2 ± 0.8 nmol/mg protein
fold increase of PAOh1/SMO activity ([7]; NCI A549, 10 μM, 12 h): approximately threefold
PAOh1/SMO activity ([7]; NCI A549, 10 μM, 24 h, untreated 6,390 ± 2,070): 16,100 ± 780 pmol H2O2/mg/h
induction of PAOh1/SMO activity ([7]; NCI A549, 24 h exposure to 10 μM of each analogue): significant induction
concentration of maximal induction of PAOh1/SMO ([7]; NCI A549, increasing concentrations, 24 h): 5 µM
increase in PAOh1/SMO activity [8]: no observed increase
increase in PAOh1/SMO mRNA [8]: no observed increase
